Test results from the supplement of paper PMC5908809.

Experiments:
[1] = test system: normal NK cells expanded with K562-aAPC; experiment: drug sensitivity score (DSS) (DSS units); higher = more sensitive; extreme values may be limits of the assay; details: 72 h; IL-2 2.5 ng/mL
Protocol: (§1)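 Drug sensitivity and resistance testing on K562-aAPC-expanded normal NK cells: 5 concentrations (10-fold steps over a 10,000-fold range), 72 h at 37 °C, viability by CellTiter-Glo normalised to DMSO and benzethonium chloride controls; DSS from the fitted curve.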

[2] = test system: normal NK cells expanded with K562-aAPC; experiment: percent inhibition of viability; higher = more inhibition; details: 72 h, IL-2 2.5 ng/mL
Protocol: as §1

[3] = test system: normal primary NK cells, pool 1 (3 donors), resting (IL-2 0 ng/mL); experiment: as above; details: 72 h
[4] = test system: normal primary NK cells, pool 2 (3 donors) (IL-2 2.5 ng/mL); experiment: as above; details: 72 h
KAI3 (IL-2 2.5 ng/mL) [5] = experiment: as above; details: 72 h
KHYG-1 (IL-2 2.5 ng/mL) [6] = experiment: as above; details: 72 h
NKL (IL-2 2.5 ng/mL) [7] = experiment: as above; details: 72 h
YT (IL-2 2.5 ng/mL) [8] = experiment: as above; details: 72 h
IMC-1 (IL-2 20 ng/mL) [9] = experiment: as above; details: 72 h
DERL-7 (IL-2 2.5 ng/mL) [10] = experiment: as above; details: 72 h
NK-92 (IL-2 2.5 ng/mL) [11] = experiment: as above; details: 72 h
[12] = test system: normal primary NK cells, pool 3 (3 donors) (IL-2 2.5 ng/mL); experiment: as above; details: 72 h
NK-YS (IL-2 2.5 ng/mL) [13] = experiment: as above; details: 72 h
[14] = test system: normal primary NK cells, pool 1 (3 donors) (IL-2 2.5 ng/mL); experiment: as above; details: 72 h
SNK-6 (IL-2 2.5 ng/mL) [15] = experiment: as above; details: 72 h
[16] = test system: normal primary NK cells, pool 1 (3 donors), resting (IL-2 0 ng/mL); experiment: drug sensitivity score (DSS) (DSS units); higher = more sensitive; extreme values may be limits of the assay; details: 72 h
[17] = test system: normal primary NK cells, pool 2 (3 donors) (IL-2 2.5 ng/mL); experiment: as above; details: 72 h
KAI3 (IL-2 2.5 ng/mL) [18] = experiment: as above; details: 72 h
KHYG-1 (IL-2 2.5 ng/mL) [19] = experiment: as above; details: 72 h
NKL (IL-2 2.5 ng/mL) [20] = experiment: as above; details: 72 h
YT (IL-2 2.5 ng/mL) [21] = experiment: as above; details: 72 h
IMC-1 (IL-2 20 ng/mL) [22] = experiment: as above; details: 72 h
DERL-7 (IL-2 2.5 ng/mL) [23] = experiment: as above; details: 72 h
NK-92 (IL-2 2.5 ng/mL) [24] = experiment: as above; details: 72 h
[25] = test system: normal primary NK cells, pool 3 (3 donors) (IL-2 2.5 ng/mL); experiment: as above; details: 72 h
NK-YS (IL-2 2.5 ng/mL) [26] = experiment: as above; details: 72 h
[27] = test system: normal primary NK cells, pool 1 (3 donors) (IL-2 2.5 ng/mL); experiment: as above; details: 72 h
SNK-6 (IL-2 2.5 ng/mL) [28] = experiment: as above; details: 72 h

CC[C@]1(O)C[C@H]2CN(CCc3c([nH]c4ccccc34)[C@@](C(=O)OC)(c3cc4c(cc3OC)N(C=O)[C@H]3[C@@](O)(C(=O)OC)[C@H](OC(C)=O)[C@]5(CC)C=CCN6CC[C@]43[C@@H]65)C2)C1 [Vincristine] (max concentration tested 1000 nM)
Details | drug sensitivity score
DERL-7 (IL-2 2.5 ng/mL) [23] | 30.1
IMC-1 (IL-2 20 ng/mL) [22] | 30.1
KAI3 (IL-2 2.5 ng/mL) [18] | 20.7
KHYG-1 (IL-2 2.5 ng/mL) [19] | 30.5
NK-92 (IL-2 2.5 ng/mL) [24] | 24.3
NK-YS (IL-2 2.5 ng/mL) [26] | 24.4
NKL (IL-2 2.5 ng/mL) [20] | 30.9
SNK-6 (IL-2 2.5 ng/mL) [28] | 27.4
YT (IL-2 2.5 ng/mL) [21] | 29.8
[1] | 15.5
[16] | 6.94
[17] | 4.98
[25] | 0.39
[27] | 2.75

percent inhibition of viability [%]
Details | 0.1 nM | 1 nM | 10 nM | 100 nM | 1000 nM
DERL-7 (IL-2 2.5 ng/mL) [10] | -4.76 | -3.31 | 99.7 | 100 | 99.9
IMC-1 (IL-2 20 ng/mL) [9] | -6.56 | -3.8 | 99.6 | 101 | 101
KAI3 (IL-2 2.5 ng/mL) [5] | -2.89 | 0.47 | 50 | 71.7 | 82.8
KHYG-1 (IL-2 2.5 ng/mL) [6] | -4.8 | 0.56 | 99.8 | 108 | 109
NK-92 (IL-2 2.5 ng/mL) [11] | 0.11 | -12.7 | 50.9 | 101 | 106
NK-YS (IL-2 2.5 ng/mL) [13] | -8.13 | -3.11 | 72.6 | 72.9 | 87.9
NKL (IL-2 2.5 ng/mL) [7] | -4.74 | 5.25 | 97.5 | 99.9 | 101
SNK-6 (IL-2 2.5 ng/mL) [15] | -5.32 | 2.61 | 81.6 | 86.6 | 96.8
YT (IL-2 2.5 ng/mL) [8] | -6.99 | -4.04 | 97.3 | 106 | 106
[2] | -6.33 | -6.29 | 31.6 | 59 | 62.6
[3] | -21.8 | 5.88 | 11 | 33.2 | 38.4
[4] | -7.02 | 11 | 16.4 | 18.7 | 25.8
[12] | -10 | 9.15 | 8.72 | 4.62 | 15.8
[14] | -8.19 | 4.79 | 8.62 | 16.3 | 23.7

O=C(CCCCCCC(=O)Nc1ccccc1)NO [Vorinostat] (max concentration tested 10000 nM)
Details | drug sensitivity score
DERL-7 (IL-2 2.5 ng/mL) [23] | 13.7
IMC-1 (IL-2 20 ng/mL) [22] | 7.28
KAI3 (IL-2 2.5 ng/mL) [18] | 17.3
KHYG-1 (IL-2 2.5 ng/mL) [19] | 15.2
NK-92 (IL-2 2.5 ng/mL) [24] | 15.4
NK-YS (IL-2 2.5 ng/mL) [26] | 10.9
NKL (IL-2 2.5 ng/mL) [20] | 16.4
SNK-6 (IL-2 2.5 ng/mL) [28] | 13
YT (IL-2 2.5 ng/mL) [21] | 9.63
[1] | 12.2
[16] | 14.8
[17] | 10.8
[25] | 7.93
[27] | 15.7

percent inhibition of viability [%]
Details | 1 nM | 10 nM | 100 nM | 1000 nM | 10000 nM
DERL-7 (IL-2 2.5 ng/mL) [10] | -1.03 | -2.59 | -8.59 | 72 | 101
IMC-1 (IL-2 20 ng/mL) [9] | -3.93 | -0.96 | -3.21 | 10.4 | 101
KAI3 (IL-2 2.5 ng/mL) [5] | -1.17 | 1.24 | 28.6 | 72.4 | 106
KHYG-1 (IL-2 2.5 ng/mL) [6] | -10.8 | -5.48 | -3.11 | 83.4 | 108
NK-92 (IL-2 2.5 ng/mL) [11] | -12.1 | -8.53 | 8.96 | 76.6 | 107
NK-YS (IL-2 2.5 ng/mL) [13] | -9.89 | -6.61 | -3.67 | 40.2 | 105
NKL (IL-2 2.5 ng/mL) [7] | -8.87 | -13.6 | 15.1 | 78.1 | 107
SNK-6 (IL-2 2.5 ng/mL) [15] | 1.27 | -7.67 | 9.77 | 59.8 | 100
YT (IL-2 2.5 ng/mL) [8] | -0.8 | -1.86 | 3.47 | 27.2 | 106
[2] | -0.79 | -2.42 | 2.48 | 56.2 | 100
[3] | -1.81 | 11.6 | 10.4 | 71.9 | 90.8
[4] | -5.53 | -2.6 | -3.11 | 42.6 | 96.4
[12] | -8.36 | -6.48 | 0.69 | 14.9 | 98.3
[14] | 10.5 | 10 | 21.7 | 67.8 | 98.3

Oc1nc(-c2ccc(C(F)(F)F)cc2)nc2c1CSCC2 [XAV-939] (max concentration tested 10000 nM)
Details | drug sensitivity score
DERL-7 (IL-2 2.5 ng/mL) [23] | 0
IMC-1 (IL-2 20 ng/mL) [22] | 3.24
KAI3 (IL-2 2.5 ng/mL) [18] | 0
KHYG-1 (IL-2 2.5 ng/mL) [19] | 0.01
NK-92 (IL-2 2.5 ng/mL) [24] | 5.52
NK-YS (IL-2 2.5 ng/mL) [26] | 0
NKL (IL-2 2.5 ng/mL) [20] | 0.48
SNK-6 (IL-2 2.5 ng/mL) [28] | 8.49
YT (IL-2 2.5 ng/mL) [21] | 0
[1] | 1.76
[16] | 0
[17] | 0
[25] | 0
[27] | 0

percent inhibition of viability [%]
Details | 1 nM | 10 nM | 100 nM | 1000 nM | 10000 nM
DERL-7 (IL-2 2.5 ng/mL) [10] | -0.97 | 2.31 | -5.81 | -0.61 | -5.6
IMC-1 (IL-2 20 ng/mL) [9] | -0.75 | 0.78 | 6.56 | 9.99 | 39.2
KAI3 (IL-2 2.5 ng/mL) [5] | -2.16 | 1.91 | 4.79 | 4.07 | 5.97
KHYG-1 (IL-2 2.5 ng/mL) [6] | -8.26 | -1.11 | 3.24 | 1.73 | 10.4
NK-92 (IL-2 2.5 ng/mL) [11] | -10.9 | 2.21 | 17.2 | 22 | 31.4
NK-YS (IL-2 2.5 ng/mL) [13] | -12.6 | -2.95 | -1.3 | -3.02 | 5.39
NKL (IL-2 2.5 ng/mL) [7] | 1.91 | -6.23 | 10.7 | 20.1 | 4.9
SNK-6 (IL-2 2.5 ng/mL) [15] | -1.06 | -8.2 | 12.5 | 35.6 | 76
YT (IL-2 2.5 ng/mL) [8] | 4.14 | 5.64 | 7.84 | -1.3 | 6.37
[2] | 1.61 | 2.89 | 1.43 | 14.1 | 19.3
[3] | -4.7 | -1.64 | -3.21 | -28.2 | -2.43
[4] | -8.38 | -12 | -5.14 | 5.25 | 5.51
[12] | -11 | -5.69 | -2.72 | 0.89 | 10.2
[14] | 7.73 | 0.81 | -0.78 | 0.58 | 4.2

c1ccc(Cn2c(-c3ccc(OC[C@H](C4CCNCC4)n4c(-c5ccccc5)nc5ccccc54)cc3)nc3ccccc32)cc1 [deltarasin] (max concentration tested 10000 nM)
Details | drug sensitivity score
DERL-7 (IL-2 2.5 ng/mL) [23] | 8.12
IMC-1 (IL-2 20 ng/mL) [22] | 5
KAI3 (IL-2 2.5 ng/mL) [18] | 8.58
KHYG-1 (IL-2 2.5 ng/mL) [19] | 6.1
NK-92 (IL-2 2.5 ng/mL) [24] | 8.37
NK-YS (IL-2 2.5 ng/mL) [26] | 6.93
NKL (IL-2 2.5 ng/mL) [20] | 7.72
SNK-6 (IL-2 2.5 ng/mL) [28] | 5.39
YT (IL-2 2.5 ng/mL) [21] | 6.49
[1] | 5.21
[16] | 9.04
[17] | 7.32
[25] | 6.03
[27] | 6.08

percent inhibition of viability [%]
Details | 1 nM | 10 nM | 100 nM | 1000 nM | 10000 nM
DERL-7 (IL-2 2.5 ng/mL) [10] | -6.29 | 6.05 | -2.6 | 15.6 | 100
IMC-1 (IL-2 20 ng/mL) [9] | -1.41 | -1.69 | -5.88 | -8.23 | 100
KAI3 (IL-2 2.5 ng/mL) [5] | 1.58 | 6.95 | 3.87 | 19.1 | 99.1
KHYG-1 (IL-2 2.5 ng/mL) [6] | -3.81 | -4.92 | -1.42 | 4.21 | 99.4
NK-92 (IL-2 2.5 ng/mL) [11] | -6.78 | -14.8 | -7.87 | 17.8 | 98.7
NK-YS (IL-2 2.5 ng/mL) [13] | 1.38 | 0.11 | 0.9 | 9.01 | 99.1
NKL (IL-2 2.5 ng/mL) [7] | -1.26 | -0.19 | 0.54 | 13.1 | 100
SNK-6 (IL-2 2.5 ng/mL) [15] | -2.79 | 1.66 | -4.21 | -2.37 | 100
YT (IL-2 2.5 ng/mL) [8] | -7.64 | -4.86 | -5.15 | 6.64 | 99
[2] | -6.73 | -5.61 | -6.67 | -4.59 | 100
[3] | -29 | -22.3 | -17.1 | 22.4 | 100
[4] | 3.52 | -1.56 | -7.68 | 10.8 | 100
[12] | -5.09 | -3.8 | -9.07 | 2.9 | 101
[14] | -6.29 | -12.3 | -0.84 | 3.6 | 100
